Data published in ChEMBL document CHEMBL1201862, “PubChem BioAssay data set” (2004).
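In this assay, cells in 96-well plates receive the compound at five concentrations for 48 hours. Endpoints are linearly interpolated between the surrounding concentrations. Here, GI50 denotes the concentration required for 50% inhibition of growth.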 Active and inactive are the calls of the source. No stated cut-off is given here; in the data, active = GI50 up to about 1.1 µM and inactive = higher.

Key:
Experiment in all cases: NCI-60 cell line screen, 48 h
[1] = system: SK-OV-3
[2] = system: OVCAR-5
[3] = system: SK-MEL-2
[4] = system: MDA-N
[5] = system: SNB-78
[6] = system: LOX IMVI
[7] = system: K562
[8] = system: BT-549
[9] = system: TK-10
[10] = system: HT-29
[11] = system: OVCAR-8
[12] = system: RXF 393
[13] = system: OVCAR-3
[14] = system: UACC-257
[15] = system: MCF7
[16] = system: A549
[17] = system: SR
[18] = system: MDA-MB-231
[19] = system: M19-MEL
[20] = system: OVCAR-4

## C=C1CC2(OC1=O)c1ccccc1CCc1ccccc12
[1]
  GI50: 17700 nM (inactive)
[2]
  GI50: 14500 nM (inactive)
[3]
  GI50: 5620 nM (inactive)
[4]
  GI50: 1800 nM (inactive)
[5]
  GI50: 2180 nM (inactive)
[6]
  GI50: 1460 nM (inactive)
[7]
  GI50: 1710 nM (inactive)
[8]
  GI50: 1580 nM (inactive)
[9]
  GI50: 2840 nM (inactive)
[10]
  GI50: 1840 nM (inactive)
[11]
  GI50: 4480 nM (inactive)
[12]
  GI50: 1660 nM (inactive)
[13]
  GI50: 1890 nM (inactive)
[14]
  GI50: 3820 nM (inactive)
[15]
  GI50: 4590 nM (inactive)
[16]
  GI50: 8260 nM (inactive)
[17]
  GI50: 497 nM (active)
[18]
  GI50: 9270 nM (inactive)
[19]
  GI50: 1830 nM (inactive)
[20]
  GI50: 1930 nM (inactive)
